Reference: the NIST ThermoML archive (doi:10.1021/je700339f)

Assay: xn = mol fraction of the nth substance listed
Conditions: 298 K, Liquid

ClCCCCCl [1,4-dichlorobutane] + CC(=O)N(C)C
mass density [kg/m3]
Conditions	x2 = 0.0975	x2 = 0.2001	x2 = 0.2996	x2 = 0.4017	x2 = 0.5009	x2 = 0.5981	x2 = 0.6987	x2 = 0.801	x2 = 0.9012
100 kPa	1116.3	1097.8	1079.3	1060	1040.7	1021.7	1001.1	980	958.6
500 kPa	1116.6	1098.2	1079.6	1060.3	1041	1022	1001.3	980.3	958.8
1000 kPa	1117	1098.6	1080	1060.6	1041.4	1022.3	1001.7	980.6	959.2
1500 kPa	1117.4	1098.9	1080.3	1061	1041.7	1022.7	1002	980.8	959.5
2000 kPa	1117.7	1099.3	1080.7	1061.3	1042	1023	1002.3	981.2	959.8
2500 kPa	1118.1	1099.6	1081	1061.7	1042.4	1023.3	1002.8	981.6	960.1
3000 kPa	1118.5	1100.1	1081.4	1062.1	1042.7	1023.7	1003.1	982	960.4
3500 kPa	1118.9	1100.4	1081.8	1062.4	1043.1	1024	1003.4	982.2	960.7
4000 kPa	1119.3	1100.8	1082.1	1062.8	1043.4	1024.4	1003.7	982.6	961
4500 kPa	1119.6	1101.2	1082.5	1063.2	1043.7	1024.8	1004	982.9	961.3
5000 kPa	1120	1101.5	1082.8	1063.4	1044.1	1025	1004.4	983.2	961.6
5500 kPa	1120.4	1101.9	1083.2	1063.8	1044.5	1025.4	1004.7	983.4	961.9
6000 kPa	1120.7	1102.2	1083.6	1064.2	1044.9	1025.6	1005	983.8	962.2
6500 kPa	1121.1	1102.6	1083.9	1064.5	1045.2	1026	1005.3	984.1	962.6
7000 kPa	1121.5	1102.9	1084.3	1064.9	1045.5	1026.4	1005.7	984.4	962.9
7500 kPa	1121.9	1103.2	1084.6	1065.2	1045.8	1026.7	1006	984.8	963.1
8000 kPa	1122.2	1103.6	1085	1065.5	1046.2	1027	1006.3	985	963.5
8500 kPa	1122.5	1104	1085.4	1065.9	1046.6	1027.3	1006.6	985.4	963.7
9000 kPa	1123	1104.3	1085.7	1066.2	1046.9	1027.7	1007	985.6	964
9500 kPa	1123.2	1104.7	1086	1066.6	1047.2	1028	1007.3	986	964.3
10000 kPa	1123.7	1105.2	1086.4	1067	1047.6	1028.5	1007.6	986.3	964.7
10500 kPa	1124.1	1105.5	1086.8	1067.3	1047.9	1028.8	1008	986.7	965
11000 kPa	1124.4	1105.8	1087.2	1067.6	1048.2	1029.1	1008.3	986.9	965.2
11500 kPa	1124.7	1106.2	1087.5	1068	1048.6	1029.5	1008.6	987.3	965.6
11900 kPa	–	–	–	–	–	–	–	987.6	–
12000 kPa	1125.1	1106.6	1087.8	1068.3	1048.9	1029.8	1008.9	–	965.9
12500 kPa	1125.5	1106.8	1088.2	1068.7	1049.2	1030.1	1009.3	987.9	966.3
13000 kPa	1125.8	1107.2	1088.5	1069	1049.6	1030.4	1009.6	988.2	966.5
13400 kPa	–	–	–	1069.3	1049.9	–	–	–	–
13500 kPa	1126.1	1107.6	1088.9	–	–	1030.7	1009.9	988.5	966.8
14000 kPa	1126.5	1107.9	1089.1	1069.7	1050.3	1031	1010.2	988.8	967.1
14500 kPa	1126.8	1108.2	1089.5	1070	1050.6	1031.4	1010.5	989.1	967.4
15000 kPa	1127.2	1108.6	1089.9	1070.3	1050.9	1031.6	1010.8	989.4	967.7
15500 kPa	1127.6	1108.9	1090.2	1070.6	1051.2	1032	1011.1	989.7	968
16000 kPa	1127.9	1109.3	1090.5	1071	1051.5	1032.3	1011.4	990	968.2
16400 kPa	1128.2	–	–	–	1051.8	–	–	–	–
16500 kPa	–	1109.6	1090.9	1071.4	–	1032.6	1011.7	990.2	968.5
17000 kPa	1128.6	1109.9	1091.2	1071.6	1052.1	1032.9	1012	990.5	968.7
17500 kPa	1129	1110.3	1091.6	1072	1052.4	1033.2	1012.4	990.8	969.1
17900 kPa	–	–	–	–	1052.7	–	–	–	–
18000 kPa	1129.3	1110.6	1091.8	1072.3	–	1033.5	1012.7	991.1	969.3
18500 kPa	1129.6	1110.9	1092.2	1072.6	1053.1	1033.8	1013	991.4	969.6
19000 kPa	1130	1111.3	1092.5	1073	1053.5	1034.2	1013.3	991.8	969.9
19500 kPa	1130.3	1111.7	1092.8	1073.3	1053.8	1034.5	1013.6	992	970.1
20000 kPa	1130.8	1112	1093.3	1073.8	1054.1	1034.8	1014	992.4	970.5
